Source: PMC11606603, “The membrane domains of mammalian adenylyl cyclases are lipid receptors” (eLife, 2024)
“And” between values parts separate entries of the source, which are not always exact repeats. Identical values can stand only once. Like-named read-outs stand apart in the source and are kept apart here.

Key:
[1] = biological target: T1, HEK293 cells permanently transfected with mAC3 (Homo sapiens, UniProt O60266); assay: cAMP accumulation assay, isoproterenol-stimulated HEK-mAC3 cells; format: cell-based; details: for Effect on isoproterenol-stimulated cAMP formation in HEK-mAC3: in words
T1 construct: Human mAC genes were from GenScript and fitted with a C-terminal FLAG-tag; FLAG (C); expressed in transfected cells; host or cells: HEK293, permanently transfected
T1 sequence (O60266 1-1144): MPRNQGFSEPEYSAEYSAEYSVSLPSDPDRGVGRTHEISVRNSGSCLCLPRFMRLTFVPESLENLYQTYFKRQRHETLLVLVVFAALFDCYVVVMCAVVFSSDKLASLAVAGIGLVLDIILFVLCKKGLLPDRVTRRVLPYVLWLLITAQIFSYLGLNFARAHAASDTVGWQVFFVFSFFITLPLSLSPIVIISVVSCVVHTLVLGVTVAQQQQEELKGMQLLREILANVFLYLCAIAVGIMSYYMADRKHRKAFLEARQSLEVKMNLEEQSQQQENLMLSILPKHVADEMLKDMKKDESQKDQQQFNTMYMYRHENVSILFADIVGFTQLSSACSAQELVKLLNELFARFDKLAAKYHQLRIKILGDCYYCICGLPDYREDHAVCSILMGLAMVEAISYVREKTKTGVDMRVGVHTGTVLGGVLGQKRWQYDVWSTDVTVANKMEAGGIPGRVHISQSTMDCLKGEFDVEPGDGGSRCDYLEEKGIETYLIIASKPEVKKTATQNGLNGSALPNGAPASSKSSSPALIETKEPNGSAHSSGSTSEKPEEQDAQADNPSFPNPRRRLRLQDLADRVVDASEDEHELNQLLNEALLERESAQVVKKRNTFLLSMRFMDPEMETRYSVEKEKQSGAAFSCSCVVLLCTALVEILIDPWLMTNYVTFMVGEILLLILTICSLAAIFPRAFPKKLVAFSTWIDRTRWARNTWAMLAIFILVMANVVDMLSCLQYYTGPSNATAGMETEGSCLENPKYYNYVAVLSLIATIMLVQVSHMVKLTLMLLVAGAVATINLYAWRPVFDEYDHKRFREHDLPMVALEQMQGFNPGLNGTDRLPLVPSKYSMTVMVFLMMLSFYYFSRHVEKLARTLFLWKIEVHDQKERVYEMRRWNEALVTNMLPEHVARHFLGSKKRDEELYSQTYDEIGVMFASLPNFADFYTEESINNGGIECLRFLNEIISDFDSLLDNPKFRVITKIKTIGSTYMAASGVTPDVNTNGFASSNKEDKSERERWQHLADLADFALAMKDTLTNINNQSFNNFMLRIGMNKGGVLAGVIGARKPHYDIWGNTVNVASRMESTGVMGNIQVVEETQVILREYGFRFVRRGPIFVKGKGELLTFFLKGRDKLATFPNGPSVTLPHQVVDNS
Description: hAC sequences were from NCBI were: ADCY1: NM_021116.3; ADCY2: NM_020546.2; ADCY3: NM_004036.4; ADCY4: NM_001198568.2; ADCY5: NM_183357.2; ADCY6: NM_015270.4; ADCY7: NM_001114.4; ADCY8: NM_001115.2; ADCY9: NM_001116.3. Human mAC genes were from GenScript and fitted with a C-terminal FLAG-tag. […] The gene was synthesized by GenScript. HEK293 cells were maintained in Dulbeccos Modified Eagle Medium (DMEM) with 10% fetal bovine serum at 37°C and 5% CO2. Transfection with AC plasmids was with PolyJet (SignaGen, Frederick, MD, USA). Permanent cell lines were generated by selection for 7 days with 600 µg/ml G418 and maintained with 300 µg/ml For membrane preparation, cells were tyrpsinized, collected by centrifugation (3000 × g, 5 min) and lysed and homogenized in 20 mM HEPES, pH 7.5, 1 mM Ethylenediaminetetraacetic acid (EDTA), 2 mM MgCl2, 1 mM Dithiothreitol (DTT), one tablet of cOmplete, EDTA-free (per 50 ml) and 250 mM sucrose by 20 strokes in a potter homogenizer on ice. Debris was removed (5 min at 1000 × g, 0°C), membranes were collected at 100,000 × g, 60 min at 0°C, suspended and stored at −80°C in 20 mM MOPS, pH 7.5, 0.5 mM EDTA, 2 mM MgCl2. […] Three cerebral cortices were dissected and homogenized in 4.5 ml cold 48 mM Tris–HCl, pH 7.4, 12 mM MgC1_2, and 0.1 mM Ethylene glycol-bis(β-aminoethyl ether)-N,N,N′,N′-tetraacetic acid (EGTA) with a Polytron hand disperser (Kinematica AG, Switzerland). […] The pellet was washed once with 5 ml 1 mM KHCO3. The final suspension in 2 ml 1 mM KHCO3 was stored in aliquots at −80°C.
HEK293 cells stably expressing mAC isoforms 3, 5, and mAC5(membr)_mAC3(cat) were plated at 2500–10,000 cells/well into 384-well plates. […] Addition of Cisbio HTRF detection reagents stopped the reaction and cAMP levels were determined.

mAC1 = biological target: T2, mAC1 (Homo sapiens, UniProt Q08828); assay: AC assay, Gsα-stimulated mAC1 in membranes from transfected HEK293 cells; format: biochemical; details: for Effect of lipid on 300 nM Gsα-stimulated mAC1: 20 µM, in words; for activity [%] (100% = 300nM Gsα stimulation): mAC1
T2 construct: Human mAC genes were from GenScript and fitted with a C-terminal FLAG-tag; FLAG (C); made in house; host or cells: HEK293, permanently transfected; membrane preparation
T2 sequence (Q08828 whole entry): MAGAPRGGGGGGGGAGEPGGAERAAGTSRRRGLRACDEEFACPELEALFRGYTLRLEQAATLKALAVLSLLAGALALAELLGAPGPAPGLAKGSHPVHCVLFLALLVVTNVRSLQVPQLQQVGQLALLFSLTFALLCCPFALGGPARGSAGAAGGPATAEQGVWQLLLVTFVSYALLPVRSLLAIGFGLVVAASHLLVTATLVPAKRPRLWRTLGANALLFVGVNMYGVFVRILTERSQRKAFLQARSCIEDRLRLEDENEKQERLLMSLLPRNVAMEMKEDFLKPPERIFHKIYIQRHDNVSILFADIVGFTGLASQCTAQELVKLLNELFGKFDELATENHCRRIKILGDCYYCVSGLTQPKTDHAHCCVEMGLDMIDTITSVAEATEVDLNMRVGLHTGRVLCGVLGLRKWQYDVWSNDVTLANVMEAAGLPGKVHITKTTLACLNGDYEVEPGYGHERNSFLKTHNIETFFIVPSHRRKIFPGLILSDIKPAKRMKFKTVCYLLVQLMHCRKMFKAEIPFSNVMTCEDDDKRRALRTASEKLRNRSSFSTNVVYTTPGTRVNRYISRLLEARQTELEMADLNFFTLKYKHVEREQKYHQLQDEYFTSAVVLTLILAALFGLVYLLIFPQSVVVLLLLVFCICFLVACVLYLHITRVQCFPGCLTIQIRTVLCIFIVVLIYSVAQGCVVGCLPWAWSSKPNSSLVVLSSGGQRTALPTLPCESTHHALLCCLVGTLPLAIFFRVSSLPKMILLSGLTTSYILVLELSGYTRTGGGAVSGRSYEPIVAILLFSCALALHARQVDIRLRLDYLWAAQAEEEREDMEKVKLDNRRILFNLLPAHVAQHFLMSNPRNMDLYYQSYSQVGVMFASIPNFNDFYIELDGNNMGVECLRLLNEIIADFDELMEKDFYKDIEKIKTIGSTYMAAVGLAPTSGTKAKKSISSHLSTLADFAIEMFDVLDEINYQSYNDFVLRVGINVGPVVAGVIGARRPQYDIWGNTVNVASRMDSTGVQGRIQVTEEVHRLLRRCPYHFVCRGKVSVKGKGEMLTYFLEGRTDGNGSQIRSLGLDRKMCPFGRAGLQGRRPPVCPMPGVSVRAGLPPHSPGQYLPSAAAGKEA
Outline: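 Adenylyl cyclase activity was measured in 100,000 × g membrane fractions prepared from HEK293 cells permanently transfected with C-terminally FLAG-tagged human AC isoforms. Assays contained 1 mM ATP and 2 mM MgCl2 with an ATP-regenerating system at pH 7.5.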

mAC8 = biological target: T3, mAC8 (Homo sapiens, UniProt P40145); assay: AC assay, Gsα-stimulated mAC8 in membranes from transfected HEK293 cells; format: biochemical; details: for mAC8 activity [%] (100% = 300nM Gsα stimulation): 20µM fatty acid concentration
T3 construct: Human mAC genes were from GenScript and fitted with a C-terminal FLAG-tag; FLAG (C); made in house; host or cells: HEK293, permanently transfected; membrane preparation
T3 sequence (P40145 whole entry): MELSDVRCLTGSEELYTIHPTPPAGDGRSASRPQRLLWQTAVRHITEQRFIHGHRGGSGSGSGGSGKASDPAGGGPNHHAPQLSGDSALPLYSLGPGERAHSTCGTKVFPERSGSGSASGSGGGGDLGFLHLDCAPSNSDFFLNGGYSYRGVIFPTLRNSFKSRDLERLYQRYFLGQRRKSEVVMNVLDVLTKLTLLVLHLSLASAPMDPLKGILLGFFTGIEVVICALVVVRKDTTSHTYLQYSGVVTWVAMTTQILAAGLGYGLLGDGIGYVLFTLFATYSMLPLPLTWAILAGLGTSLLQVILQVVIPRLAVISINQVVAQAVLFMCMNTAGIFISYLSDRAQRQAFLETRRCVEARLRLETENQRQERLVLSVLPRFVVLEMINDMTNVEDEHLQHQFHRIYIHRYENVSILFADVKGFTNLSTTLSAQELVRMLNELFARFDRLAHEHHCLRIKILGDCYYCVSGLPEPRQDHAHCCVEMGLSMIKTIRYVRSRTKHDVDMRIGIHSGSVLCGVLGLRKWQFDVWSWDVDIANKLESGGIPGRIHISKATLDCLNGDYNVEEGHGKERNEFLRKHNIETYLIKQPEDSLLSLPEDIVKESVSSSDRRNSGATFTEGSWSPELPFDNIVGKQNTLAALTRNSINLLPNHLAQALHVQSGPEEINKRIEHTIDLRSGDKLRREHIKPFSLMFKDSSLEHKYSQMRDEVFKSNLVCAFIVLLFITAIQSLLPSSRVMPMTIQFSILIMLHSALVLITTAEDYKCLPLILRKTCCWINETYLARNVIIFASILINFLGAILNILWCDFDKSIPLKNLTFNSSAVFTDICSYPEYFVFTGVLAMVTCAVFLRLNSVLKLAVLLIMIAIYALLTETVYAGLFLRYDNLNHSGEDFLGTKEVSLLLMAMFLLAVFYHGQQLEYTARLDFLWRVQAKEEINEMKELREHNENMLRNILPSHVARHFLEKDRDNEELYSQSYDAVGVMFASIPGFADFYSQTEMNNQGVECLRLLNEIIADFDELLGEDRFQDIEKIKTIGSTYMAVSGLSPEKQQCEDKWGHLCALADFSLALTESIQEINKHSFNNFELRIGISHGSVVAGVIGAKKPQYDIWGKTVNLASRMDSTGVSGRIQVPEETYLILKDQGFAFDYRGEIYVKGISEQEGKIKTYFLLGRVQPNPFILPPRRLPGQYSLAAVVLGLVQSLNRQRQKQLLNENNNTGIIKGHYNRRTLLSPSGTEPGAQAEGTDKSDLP
Outline: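 cAMP detected with a Cisbio kit, calibrated by a cAMP standard curve each run. Reaction: 1 mM ATP, 2 mM MgCl2, 3 mM creatine phosphate, 60 μg/ml creatine kinase, 50 mM MOPS pH 7.5. Enzyme source: membranes of stably transfected HEK293 (G418-selected) carrying FLAG-tagged human AC.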

CCCCCCCCCCCCCCCCCC(=O)O [Stearic acid, Stearic (octadecanoic) acid]
Effect on isoproterenol-stimulated cAMP formation in HEK-mAC3 [1]: inactive | mAC1 activity [%] (100% = 300nM Gsα stimulation); 20µM fatty acid concentration (mAC1; 20 µM fatty acid, 300 nM Gsα, single experiments): 126% and 77% and 95% | mAC8 activity [%] (100% = 300nM Gsα stimulation) (mAC8): 107% and 102%

CCCCCCCC/C=C\CCCCCCCC(=O)O [Oleic acid, Oleic ((9Z)-octadecenoic) acid]
EC50 ([1]; 2.5 µM isoproterenol): 0.5 µM | enhancement of cAMP formation in HEK-mAC3 ([1]; 2.5 µM isoproterenol): 1.5 fold | AC activity (%); 100%= 2.5µM Isoproterenol stimulation ([1]; HEK-mAC3, oleic acid 0.01 µM): 132% | AC activity (%); 100%= 2.5µM Isoproterenol stimulation ([1]; HEK-mAC3, oleic acid 0.03 µM): 145% and 87% | AC activity (%); 100%= 2.5µM Isoproterenol stimulation ([1]; HEK-mAC3, oleic acid 0.06 µM): 118% and 89% | AC activity (%); 100%= 2.5µM Isoproterenol stimulation ([1]; HEK-mAC3, oleic acid 0.1 µM): 122% and 118% and 127% and 150% | AC activity (%); 100%= 2.5µM Isoproterenol stimulation ([1]; HEK-mAC3, oleic acid 0.3 µM): 130% and 163% | AC activity (%); 100%= 2.5µM Isoproterenol stimulation ([1]; HEK-mAC3, oleic acid 0.5 µM): 140% and 92% | AC activity (%); 100%= 2.5µM Isoproterenol stimulation ([1]; HEK-mAC3, oleic acid 0.6 µM): 135% and 121% and 113% and 161% | AC activity (%); 100%= 2.5µM Isoproterenol stimulation ([1]; HEK-mAC3, oleic acid 3 µM): 190% and 191% and 198% and 119% | AC activity (%); 100%= 2.5µM Isoproterenol stimulation ([1]; HEK-mAC3, oleic acid 10 µM): 199% and 123% and 137% and 198% and 118% and 119% | AC activity (%); 100%= 2.5µM Isoproterenol stimulation ([1]; HEK-mAC3, oleic acid 50 µM): 187% and 186% and 134% | Effect of lipid on 300 nM Gsα-stimulated mAC1 (mAC1): slightly attenuated | mAC8 activity [%] (100% = 300nM Gsα stimulation) (mAC8): 134% and 139% | Effect of lipid on 300 nM Gsα-stimulated mAC8 (mAC8; 20 µM, in words): unaffected | mAC activity [%] (100% = 300nM Gsα stimulation); 20µM Oleic acid concentration, mAC8 (mAC8; Figure 5 A, 20 µM oleic acid, 300 nM Gsα): 134% and 139%

CCCCC/C=C\C/C=C\C/C=C\C/C=C\CCCC(=O)O [Arachidonic acid, Arachidonic ((5Z,8Z,11Z,14Z)-eicosatetraenoic) acid]
Effect of lipid on 300 nM Gsα-stimulated mAC1 (mAC1): significantly attenuated | IC50 (mAC1; attenuation of 300 nM Gsα-stimulated activity, read-out: IC50 for mAC1): 23 µM | activity [%] (100% = 300nM Gsα stimulation) (mAC1; 6 µM, 300 nM Gsα, single experiments): 84% and 119% and 80% and 96% and 100% and 86% and 114% and 97% | activity [%] (100% = 300nM Gsα stimulation) (mAC1; 30 µM, 300 nM Gsα, single experiments): 58% and 69% and 46% | activity [%] (100% = 300nM Gsα stimulation) (mAC1; 60 µM, 300 nM Gsα, single experiments): 12% and 11% | activity [%] (100% = 300nM Gsα stimulation) (mAC1; 100 µM, 300 nM Gsα, single experiments): 12% and 2% and 3% | mAC8 activity [%] (100% = 300nM Gsα stimulation) (mAC8): 90% and 106% and 87%

CCCCC/C=C\C/C=C\C/C=C\C/C=C\CCCC(=O)NCCO [Anandamide, arachidonoylethanolamide]
Effect on isoproterenol-stimulated cAMP formation in HEK-mAC3 [1]: no effect | IC50 (mAC1): 29 µM | activity [%] (100% = 300nM Gsα stimulation) (mAC1; Anandamide 0.1 µM): 100% | activity [%] (100% = 300nM Gsα stimulation) (mAC1; Anandamide 1 µM): 81% and 83% and 116% and 100% and 88% | activity [%] (100% = 300nM Gsα stimulation) (mAC1; Anandamide 3 µM): 98% and 83% and 114% and 101% and 97% | activity [%] (100% = 300nM Gsα stimulation) (mAC1; Anandamide 10 µM): 92% and 80% and 101% and 94% and 81% | activity [%] (100% = 300nM Gsα stimulation) (mAC1; Anandamide 30 µM): 41% and 63% and 74% and 78% and 71% | activity [%] (100% = 300nM Gsα stimulation) (mAC1; Anandamide 60 µM): 39% and 40% and 53% and 59% and 57%
